Assay results as given in patent US9758395B2, “Lysine-based polymer coagulants for use in clarification of process waters” (priority 2011, dated 2017).

Test: Solubility of lysine HCl in water with temperature
Format: physicochemical
Details: room temperature (20-25° C.), monohydrochloride
Method: The solubilities of lysine were essentially the same with and without the maleic acid added to the water. For example, samples of lysine HCl were added to water in sealed, glass bottles, shaken, and placed in the forced-air oven at various temperatures. These were manually shaken periodically over the next few hours, then left to dissolve overnight. […] At 70° C., the lysine completely dissolved to 60%; at 80° C. to 62%; at 90° C. to 64%; at 100° C. to 66% lysine by weight in water. […] Representative samples of these materials were dried and polymerized at 220° C., 5 to 7 hours, under nitrogen.

## Cl.NCCCC[C@H](N)C(=O)O [lysine HCl, L-lysine monohydrochloride]
Listed as lysine
  solubility in water: 50 % by weight
  solubility in water: about 50 % by weight
